# Literature values, collected in PMC8597174 (Clinical Pharmacology in Drug Development, 2021).
substance,measurement,value
salmon calcitonin,Effect of dosing after meal intake on maximum concentration and AUC,significant reduction in maximum concentration and AUC
